Measured values taken from patent publication US20070197602A1, “Combined pharmaceutical composition” (priority 2004, published 2007).

Tested on: streptozotocin-induced diabetic model
Assay: Test Example 3: sucrose loading in streptozotocin-induced diabetic model, plasma glucose (GLU)
Format: in vivo, rat
Conditions: STZ rats; for GLU concentration before loading: Day 23, after oral once a day for 9 days, plasma glucose; for GLU concentration before loading / GLU concentration after loading / Rate of Change (GLU concentration after loading relative to before loading): metformin 50 mg/kg, voglibose 0.2 mg/kg, fenofibrate 50 mg/kg; for GLU concentration after loading: Day 24, 60 minutes after sucrose 2.5 g/kg oral given immediately after test article; for blood sugar level change by the sucrose loading (in words) / Rate of Change (GLU concentration after loading relative to before loading): sucrose loading 2.5 g/kg; for blood sugar level change by the sucrose loading (in words): STZ-treated control increased about 20%
Protocol: At 13 days after administration (Day 13), blood was collected from the rats, and plasma glucose (GLU) concentration was measured. […] From Day 14 (14 days after STZ administration), test articles shown in Table 1 were orally administered to the rats once a day for 9 days. At 23 days after STZ administration (Day 23), the GLU concentration was measured (previous value: GLU concentration before sucrose loading) (incidentally, the test articles were not administered on Day 23). […] Moreover, “N” represents the number of rats for determining the GLU concentration in the Table.

Compound | GLU concentration before loading | GLU concentration after loading | blood sugar level change by the sucrose loading (in words) | Rate of Change (GLU concentration after loading relative to before loading)
CN(C)C(=N)N=C(N)N [Metformin] | 4.57 ± 0.36 g/L | 5.41 ± 0.38 g/L | increased | 118.4%
OCC(CO)N[C@H]1C[C@](O)(CO)[C@@H](O)[C@H](O)[C@H]1O [Voglibose] | 4.30 ± 0.47 g/L | 4.50 ± 0.42 g/L | inhibited | 104.7%
CC(C)OC(=O)C(C)(C)Oc1ccc(C(=O)c2ccc(Cl)cc2)cc1 [Fenofibrate] | 4.26 ± 0.55 g/L | 4.78 ± 0.34 g/L | – | –
